Calls of active or inactive are those of the source. Cut-off read from the data, not from the text of the source, for most assays here: actives have a measured EC50 and inactives only a lower limit.
Columns and labels:
[1] = system: Streptococcus sp. 'group A'; assay: growth inhibition of control SK(-) GAS strain, dose response, counter-screen for streptokinase expression inhibitor project, luminescence, kanamycin, BacTiterGlo, confirmation (AID 1900); format: functional, organism-based
[2] = biological target: T1, Streptokinase A (Streptococcus pyogenes serotype M1, UniProt P10520); assay: S. pyogenes streptokinase expression inhibitors, potency, dose response, plasminogen activation absorbance, OD405 (AID 1914); format: functional, Streptococcus pyogenes M1 GAS;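 note: secreted streptokinase activity via plasminogen activation per viability signal from cell pellet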
T1 sequence (P10520 whole entry): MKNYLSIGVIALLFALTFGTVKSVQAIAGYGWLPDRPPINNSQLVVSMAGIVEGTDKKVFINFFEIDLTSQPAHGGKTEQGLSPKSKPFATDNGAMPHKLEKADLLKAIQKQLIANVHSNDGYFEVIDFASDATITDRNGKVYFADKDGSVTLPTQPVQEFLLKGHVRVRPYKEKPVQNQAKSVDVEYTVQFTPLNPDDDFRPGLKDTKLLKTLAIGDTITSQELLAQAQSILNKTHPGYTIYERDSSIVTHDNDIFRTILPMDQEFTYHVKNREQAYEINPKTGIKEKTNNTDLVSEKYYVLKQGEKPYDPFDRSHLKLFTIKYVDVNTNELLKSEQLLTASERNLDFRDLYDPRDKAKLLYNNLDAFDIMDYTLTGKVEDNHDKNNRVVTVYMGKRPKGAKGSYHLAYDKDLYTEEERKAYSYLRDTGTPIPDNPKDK

[3] = system: Streptococcus; assay: Group A Streptococcus viability loss, dose response, counter-screen for streptokinase expression inhibitor project, luminescence, BacTiterGlo (AID 1915); format: functional, organism-based;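 note: potency for reduction of bacterial viability or growth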
[4] = biological target: Cytochrome P450 3A4 (Homo sapiens, UniProt P08684);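 note: CYP3A4 tested as one member of a cytochrome P450 panel screen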
Cytochrome P450 3A4, sequence (P08684 whole entry): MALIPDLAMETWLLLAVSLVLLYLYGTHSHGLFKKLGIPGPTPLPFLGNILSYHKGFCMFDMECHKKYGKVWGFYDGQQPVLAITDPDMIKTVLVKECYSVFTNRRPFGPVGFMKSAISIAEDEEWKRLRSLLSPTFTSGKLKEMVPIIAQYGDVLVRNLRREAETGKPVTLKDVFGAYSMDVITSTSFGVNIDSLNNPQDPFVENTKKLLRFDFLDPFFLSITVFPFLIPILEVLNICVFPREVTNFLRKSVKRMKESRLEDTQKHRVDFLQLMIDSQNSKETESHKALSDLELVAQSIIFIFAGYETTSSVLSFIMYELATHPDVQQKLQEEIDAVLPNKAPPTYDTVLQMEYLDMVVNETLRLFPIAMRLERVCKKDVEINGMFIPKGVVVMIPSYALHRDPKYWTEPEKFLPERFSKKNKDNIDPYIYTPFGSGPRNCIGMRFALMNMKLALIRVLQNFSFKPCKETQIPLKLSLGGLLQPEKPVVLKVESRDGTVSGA

[5] = biological target: Cytochrome P450 2C9 (Homo sapiens, UniProt P11712)
Cytochrome P450 2C9, sequence (P11712 whole entry): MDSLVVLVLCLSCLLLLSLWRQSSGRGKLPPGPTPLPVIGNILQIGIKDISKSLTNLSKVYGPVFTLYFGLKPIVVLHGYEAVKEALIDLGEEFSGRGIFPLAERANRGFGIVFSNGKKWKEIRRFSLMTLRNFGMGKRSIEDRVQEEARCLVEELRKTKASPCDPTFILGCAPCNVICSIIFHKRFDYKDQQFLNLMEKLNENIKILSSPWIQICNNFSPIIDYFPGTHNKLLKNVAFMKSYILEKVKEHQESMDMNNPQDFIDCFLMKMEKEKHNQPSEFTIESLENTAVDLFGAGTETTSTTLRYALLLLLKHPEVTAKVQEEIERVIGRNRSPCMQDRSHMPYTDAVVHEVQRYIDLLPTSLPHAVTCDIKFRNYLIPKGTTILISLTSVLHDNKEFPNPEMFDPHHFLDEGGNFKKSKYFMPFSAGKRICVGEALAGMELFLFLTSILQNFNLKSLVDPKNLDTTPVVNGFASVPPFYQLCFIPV

[6] = inhibitors of intracellular T. cruzi replication, confirmation, NIH3T3 host cells, beta-gal luminescence (AID 2044); format: functional, cell-based;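 note: intracellular parasites grown in NIH/3T3 mouse fibroblasts as host cells; luminescent beta-galactosidase reporter signal from transgenic T. cruzi replicating inside host cells; inhibitors lower the luminescence signal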
[7] = cytotoxicity toward NIH3T3 fibroblasts, dose response, counter-screen, cell-based, ATP luminescence, mouse fibroblasts (AID 2010); format: functional;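 note: cells exposed to compound for about 90 hours before reading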
[8] = Luminescence Cell-Based Dose Response HTS to Identify Activators of Luciferase Translation or Activity in H4 […] Cells. [Related pubchem assays: 1829 (Project Summary), 1814 (Primary HTS)]; format: functional
[9] = system: H4; assay: Luminescence Cell-Based Dose Response HTS to Identify Activators of 5'UTR Stem-Loop Driven Prion Protein mRNA Translation in H4 Neuroglioblastoma Cells. [Related pubchem assays: 1829 (Project Summary), 1814 (Primary HTS)]; format: functional; details: Homo sapiens

Structure (SMILES): CC(Oc1ccc(Cl)cc1Cl)C(=O)Nc1ccc(S(=O)(=O)Nc2cnc3ccccc3n2)cc1 (configuration not stated)
- EC50 [1]: 2.45 µM (active)
- EC50 [2]: 3.69 µM (active)
- EC50 [3]: 7.38 µM (active)

Structure (SMILES): O=c1c(-c2cccs2)nc2cnc(Oc3ccccc3)nc2n1Cc1cccs1
- AC50 [4]: 15.8 µM (inconclusive)
- AC50 [5]: 1.58 µM (inconclusive)

Structure (SMILES): Cc1noc(C)c1CSCC(=O)Nc1nc2ccc(Oc3ccccc3)cc2s1
- EC50 [1]: 4.32 µM (active)
- EC50 [2]: 16.9 µM (active)
- EC50 [3]: > 150 µM (not active)

Structure (SMILES): O=C(Cn1cnc2cc([N+](=O)[O-])ccc2c1=O)Nc1ccc(Br)cc1
- EC50 [6]: 0.85 µM (active)
- EC50 [7]: > 30 µM (not active)

Structure (SMILES): COc1cccc(CNC(=O)CCC2CCCN(Cc3cc4ccccc4o3)C2)c1 (configuration not stated)
- EC50 [6]: 0.103 µM (active)
- EC50 [7]: > 60 µM (not active)

Structure (SMILES): O=C(c1ccco1)N(CCC(c1ccccc1)c1ccco1)Cc1ccco1 (configuration not stated)
- AC50 [4]: 11.2 µM (inconclusive)

Structure (SMILES): CCCCOc1cc(C[C@@H]2CNC(=O)N2)ccc1OC
- AC50 [4]: 15.8 µM (inconclusive)

Structure (SMILES): COc1ccc(CNC(=O)CN(Cc2ccccc2)S(=O)(=O)c2ccc(Cl)cc2)cc1
- EC50 [6]: 3.15 µM (active)
- EC50 [7]: > 60 µM (not active)

Structure (SMILES): O=C(Nc1cc(C(F)(F)F)ccc1-n1cncn1)c1ccc(Br)cc1
- AC50 [5]: 3.16 µM (inconclusive)

Structure (SMILES): O=C(Nc1ccccc1Sc1ccccc1)c1ccccc1F
- EC50 [2]: > 50 µM (not active)
- EC50 [3]: > 150 µM (not active)

Structure (SMILES): COc1ccccc1CNc1ncncc1-c1ccoc1
- AC50 [4]: 0.794 µM (inconclusive)
- AC50 [5]: 1.58 µM (inconclusive)

Structure (SMILES): Cc1ccc(N2C(=O)C3N=NN(CC(=O)N4N=C(c5cccc6ccccc56)CC4c4ccccc4)C3C2=O)cc1 (configuration not stated)
- EC50 [1]: 31.4 µM (active)
- EC50 [2]: 35.7 µM (active)
- EC50 [3]: > 150 µM (not active)

Structure (SMILES): C/C(=N\NC(=O)c1[nH]c2c([N+](=O)[O-])cc(C)cc2c1-c1ccccc1)c1cccnc1
- AC50 [5]: 8.91 µM (inconclusive)

Structure (SMILES): CN(C)c1ccc(-c2noc(C3CCN(S(=O)(=O)c4cccc(C(=O)O)c4)CC3)n2)cc1
- AC50 [5]: 15.8 µM (inconclusive)

Structure (SMILES): COc1ccc(C(=O)Nc2sc(C)c(-c3ccccc3)c2C#N)cc1OC
- EC50 [1]: 9.09 µM (active)
- EC50 [2]: > 150 µM (not active)
- EC50 [3]: 45.5 µM (active)

Structure (SMILES): CC(C)CN1CCC2(CC1)CCN(C(=O)c1ccncc1)CC2
- AC50 [4]: 15.8 µM (inconclusive)

Structure (SMILES): Cc1nc2cnc(N3CCN(C)CC3)nc2n(Cc2ccc(F)cc2)c1=O
- AC50 [4]: 20 µM (inconclusive)

Structure (SMILES): COCCOC(=O)C1=C(C)NC(=O)N(C(C)=O)C1c1ccc(Cl)cc1 (configuration not stated)
- AC50 [4]: 17.8 µM (inconclusive)

Structure (SMILES): O=[N+]([O-])c1ccc(S(=O)(=O)NCC(c2cccnc2)N2CCc3ccccc32)cc1 (configuration not stated)
- EC50 [6]: 0.622 µM (active)
- EC50 [7]: > 60 µM (not active)

Structure (SMILES): Clc1ccccc1-c1cncnc1NCCc1cnc[nH]1
- AC50 [5]: 1 µM (inconclusive)

Structure (SMILES): Cc1ccc(NC(=O)OCc2cn(-c3ccc(Cl)cc3)nn2)cc1
- AC50 [4]: 7.94 µM (inconclusive)

Structure (SMILES): C/C(Cn1cnc([N+](=O)[O-])n1)=N\NC(=O)c1ccc(O)cc1O
- EC50 [6]: 1.52 µM (active)
- EC50 [7]: > 60 µM (not active)

Structure (SMILES): O=C(Cn1c(-c2ccccc2)c[n+]2ccsc12)c1ccccc1
- EC50 [6]: 2.29 µM (active)
- EC50 [7]: > 30 µM (not active)

Structure (SMILES): Clc1ccc(-c2cc3ccccc3nc2N2CCCC2)cc1
- EC50 [1]: 8.89 µM (active)
- EC50 [2]: 17.6 µM (active)
- EC50 [3]: > 150 µM (not active)

Structure (SMILES): O=C(CSc1nnc(-c2cccnc2)o1)Nc1ccccn1
- EC50 [8]: 14.5 µM (active)
- EC50 [9]: > 120 µM (not active)

Structure (SMILES): Cc1nn(C)c(Cl)c1CN1CCCC(C(=O)Nc2ccc(-c3cscn3)cc2)C1 (configuration not stated)
- EC50 [1]: > 150 µM (not active)
- EC50 [2]: > 150 µM (not active)
- EC50 [3]: > 150 µM (not active)

Structure (SMILES): CC(NC(=O)CN1CCCC1)C12CC3CC(CC(C3)C1)C2 (configuration not stated)
- AC50 [4]: 14.1 µM (inconclusive)

Structure (SMILES): CCNC(C)(C)[C@@H](SS)c1ccc(Br)cc1
- AC50 [4]: 5.01 µM (inconclusive)
- AC50 [5]: 6.31 µM (inconclusive)

Structure (SMILES): CCN1CC(CN(C)Cc2nc(-c3ccc(C(F)(F)F)cc3)oc2C)CC1=O (configuration not stated)
- EC50 [6]: 0.288 µM (active)
- EC50 [7]: 32.6 µM (active)

Structure (SMILES): CN1CCC(N(C)C(=O)c2sc3cc(F)ccc3c2Cl)CC1
- EC50 [6]: 0.197 µM (active)
- EC50 [7]: > 60 µM (not active)

Structure (SMILES): CN(C)c1cc(-c2cccc(NS(C)(=O)=O)c2)ncn1
- AC50 [4]: 25.1 µM (inconclusive)

Structure (SMILES): O=C(COC(=O)c1ccccc1)Nc1ccccc1Sc1ccccc1
- EC50 [1]: > 150 µM (not active)
- EC50 [2]: 28.8 µM (active)
- EC50 [3]: > 150 µM (not active)

Structure (SMILES): CC(C)CN1CCCC2(CCN(C(=O)c3cccn3C)CC2)C1
- AC50 [4]: 12.6 µM (inconclusive)

Structure (SMILES): COc1ccccc1CNC(=O)c1ccc(-c2ccccc2Cl)o1
- EC50 [1]: 15.3 µM (active)
- EC50 [2]: > 150 µM (not active)
- EC50 [3]: 17.5 µM (active)

Structure (SMILES): C[C@@]12CC[C@H]3[C@@H](CC[C@@H]4C[C@H]5S[C@H]5C[C@]43C)[C@H]1CC[C@H]2O
- AC50 [4]: 6.31 µM (inconclusive)

Structure (SMILES): COc1ccccc1CNc1ncncc1-c1ccccc1OC
- AC50 [5]: 1.58 µM (inconclusive)

Structure (SMILES): COc1ccccc1C(=O)Nc1nnc(S(=O)(=O)N2CCN(c3ccc(F)cc3)CC2)s1
- EC50 [1]: 20.1 µM (active)
- EC50 [2]: > 50 µM (not active)
- EC50 [3]: 119 µM (inconclusive)

Structure (SMILES): C=C(C)CSc1nncn1/N=C/c1ccc(OC)cc1
- EC50 [8]: > 120 µM (not active)
- EC50 [9]: 11.9 µM (active)

Structure (SMILES): COc1ccc2c3c1O[C@@H]1C(=O)CC[C@@]4(O)[C@@H](C2)N(CC2CC2)CC[C@]314
- AC50 [4]: 25.1 µM (inconclusive)

Structure (SMILES): Cc1nc2ccccc2c(=O)n1NC(=O)/C=C/c1ccccc1Cl
- EC50 [8]: 12.2 µM (active)
- EC50 [9]: 84.4 µM (active)

Structure (SMILES): O=C(C1CCCCC1)N(CCN1CCCC1)c1nc2ccccc2s1
- EC50 [6]: 0.78 µM (active)
- EC50 [7]: > 60 µM (not active)

Structure (SMILES): CCCn1c(=O)c(C(=O)Nc2ncccc2C)c(O)c2ccccc21
- EC50 [1]: 9.49 µM (active)
- EC50 [2]: > 150 µM (not active)
- EC50 [3]: 16.8 µM (active)

Structure (SMILES): O=C(O)CSc1nnc(Cn2c(=O)sc3ccccc32)n1-c1cccc(Cl)c1
- EC50 [1]: > 150 µM (not active)
- EC50 [2]: > 150 µM (not active)
- EC50 [3]: > 150 µM (not active)

Structure (SMILES): COc1cccc(-c2cncnc2NCc2ccc(OC)cc2OC)c1
- AC50 [5]: 1 µM (inconclusive)

Structure (SMILES): COc1cccc(NCc2cc(=O)oc3cc(C)c(O)cc23)c1
- EC50 [1]: 1.83 µM (active)
- EC50 [3]: 2.79 µM (active)

Structure (SMILES): CCCC(NC(=S)NCC1CCCO1)C12CC3CC(CC(C3)C1)C2 (configuration not stated)
- EC50 [2]: 18 µM (active)

Structure (SMILES): CCCC(N=C(S)NCC1CCCO1)C12CC3CC(CC(C3)C1)C2 (configuration not stated)
- EC50 [1]: 12.3 µM (active)
- EC50 [3]: > 150 µM (not active)

Structure (SMILES): C[C@H]1CC[C@H]2C(=O)N3[C@H](c4ccc(Br)cc4)[C@@H](C)CC[C@H]3C(=O)N2[C@@H]1c1ccc(Br)cc1
- AC50 [4]: 3.98 µM (inconclusive)

Structure (SMILES): COc1ccc(C2CC(c3cccs3)=NN2C(=O)CSc2nc(O)c3cnn(-c4ccccc4)c3n2)cc1 (configuration not stated)
- EC50 [1]: 3 µM (active)
- EC50 [3]: 5.77 µM (active)

Structure (SMILES): Fc1ccc(/C=C\c2[nH]ccc3c4ccccc4nc2-3)cc1
- EC50 [8]: 17.7 µM (active)
- EC50 [9]: > 120 µM (not active)

Structure (SMILES): O=C(CSc1nc2ccc([N+](=O)[O-])cc2s1)c1ccc2ccccc2c1
- AC50 [4]: 3.98 µM (inconclusive)

Structure (SMILES): CC(C)c1c(C(=O)N/N=C/c2cccc(OCc3ccccc3)c2)nnn1-c1nonc1N
- EC50 [1]: 8.03 µM (active)
- EC50 [2]: 9.73 µM (active)
- EC50 [3]: 26.4 µM (active)

Structure (SMILES): O=C(CC(=O)c1ccccc1)Nc1cccnc1Cl
- EC50 [8]: 61.9 µM (active)
- EC50 [9]: 8.38 µM (active)

Structure (SMILES): Cc1cc2c(cc1C)-c1c(ss/c1=N\c1ccc(S(N)(=O)=O)cc1)C(C)(C)N2
- EC50 [1]: 4.16 µM (active)
- EC50 [2]: 26.1 µM (active)
- EC50 [3]: > 150 µM (not active)

Structure (SMILES): C1=C(CN2CCOCC2)COc2c1cccc2OC[C@@H]1CNCCO1
- AC50 [4]: 39.8 µM (inconclusive)

Structure (SMILES): Cc1c(C(=O)N2CCC(Cc3ccccc3)CC2)sc2ncnc(N3CCC(C)CC3)c12
- EC50 [1]: 11.6 µM (active)
- EC50 [2]: 3.68 µM (active)
- EC50 [6]: 1.68 µM (active)
- EC50 [7]: > 60 µM (not active)
- EC50 [3]: 60 µM (active)

Source: ChEMBL document CHEMBL1201862, “PubChem BioAssay data set” (2004)
